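How tested: cells in 96-well plates exposed to compound for 48 hours at five concentrations. GI50: concentration for 50% inhibition of growth.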 Calls of active or inactive are those of the source. Rule as the data show it: active = GI50 up to about 1.1 µM and inactive = higher.
How the values were obtained:
Assay in all cases: NCI tumour cell line growth inhibition, 48 h
MCF7 = system: MCF7
SF-539 = system: SF-539
HOP-62 = system: HOP-62
NCI/ADR-RES = system: NCI/ADR-RES
SK-MEL-28 = system: SK-MEL-28
Malme-3M = system: Malme-3M
MDA-MB-435 = system: MDA-MB-435
T47D = system: T47D
OVCAR-8 = system: OVCAR-8
SK-MEL-5 = system: SK-MEL-5
CCRF-CEM = system: CCRF-CEM
RPMI-8226 = system: RPMI-8226
786-0 = system: 786-0
HL-60 = system: HL-60
NCI-H226 = system: NCI-H226
SN12C = system: SN12C
HCC 2998 = system: HCC 2998
UO-31 = system: UO-31
K562 = system: K562
A498 = system: A498

SMILES | GI50 (MCF7) | GI50 (SF-539) | GI50 (HOP-62) | GI50 (NCI/ADR-RES) | GI50 (SK-MEL-28) | GI50 (Malme-3M) | GI50 (MDA-MB-435) | GI50 (T47D) | GI50 (OVCAR-8) | GI50 (SK-MEL-5) | GI50 (CCRF-CEM) | GI50 (RPMI-8226) | GI50 (786-0) | GI50 (HL-60) | GI50 (NCI-H226) | GI50 (SN12C) | GI50 (HCC 2998) | GI50 (UO-31) | GI50 (K562) | GI50 (A498)
COc1cc(/C=N/c2ccc(Oc3ccc(Cl)cc3)c(Cl)c2)cc(OC)c1OC | 29.6 µM (inactive) | 16.4 µM (inactive) | 23.8 µM (inactive) | 22.9 µM (inactive) | 21.3 µM (inactive) | 15.5 µM (inactive) | 28.2 µM (inactive) | 3.53 µM (inactive) | 25.8 µM (inactive) | 17.7 µM (inactive) | 12.4 µM (inactive) | 18.9 µM (inactive) | 13.6 µM (inactive) | 15 µM (inactive) | 26.6 µM (inactive) | 20.9 µM (inactive) | 19.3 µM (inactive) | 11 µM (inactive) |  | 
O=c1oc2ccccc2cc1-c1nc2ccccc2c(=O)[nH]1 | 12 µM (inactive) | > 100 µM (inactive) | > 100 µM (inactive) | > 100 µM (inactive) | > 100 µM (inactive) | > 100 µM (inactive) | > 100 µM (inactive) | > 100 µM (inactive) | > 100 µM (inactive) | > 100 µM (inactive) | > 100 µM (inactive) | > 100 µM (inactive) | > 100 µM (inactive) | 21.9 µM (inactive) | > 100 µM (inactive) | > 100 µM (inactive) | > 100 µM (inactive) | > 100 µM (inactive) | > 100 µM (inactive) | 
N=C(N)NC(CC(=O)O)c1ccccc1 (stereo unspecified) | > 100 µM (inactive) | > 100 µM (inactive) | > 100 µM (inactive) | > 100 µM (inactive) | > 100 µM (inactive) | > 100 µM (inactive) | > 100 µM (inactive) | > 100 µM (inactive) | > 100 µM (inactive) | > 100 µM (inactive) |  | > 100 µM (inactive) | > 100 µM (inactive) |  |  | > 100 µM (inactive) |  | > 100 µM (inactive) | > 100 µM (inactive) | > 100 µM (inactive)
CCOC(=O)COc1cc(-c2ccccc2)nc2cc(F)ccc12 | > 100 µM (inactive) | 39.7 µM (inactive) | > 100 µM (inactive) | > 100 µM (inactive) | > 100 µM (inactive) | > 100 µM (inactive) | > 100 µM (inactive) | > 100 µM (inactive) | > 100 µM (inactive) | > 100 µM (inactive) | 85.7 µM (inactive) | > 100 µM (inactive) | > 100 µM (inactive) |  | > 100 µM (inactive) | > 100 µM (inactive) | > 100 µM (inactive) |  | > 100 µM (inactive) | > 100 µM (inactive)
C/C=C(/C)c1cnc(CC(C)C)c(=O)[nH]1 |  |  | > 100 µM (inactive) |  | > 100 µM (inactive) |  | > 100 µM (inactive) | > 100 µM (inactive) | > 100 µM (inactive) | > 100 µM (inactive) | > 100 µM (inactive) | 0.35 µM (active) | > 100 µM (inactive) |  |  | > 100 µM (inactive) | > 100 µM (inactive) | > 100 µM (inactive) | > 100 µM (inactive) | > 100 µM (inactive)
COc1cccc(C2SC(=N)Nc3c2c(C)nn3C(=O)c2ccccc2O)c1 (stereo unspecified) | > 3.11 µM (inactive) |  | > 7.1 µM (inactive) | > 3.78 µM (inactive) | > 10 µM (inactive) | 0.581 µM (active) | 1.76 µM (inactive) | > 7.03 µM (inactive) | > 2.76 µM (inactive) | > 6.53 µM (inactive) | > 3.21 µM (inactive) | > 10 µM (inactive) | > 3.79 µM (inactive) |  | > 2.56 µM (inactive) | > 3.35 µM (inactive) | > 10 µM (inactive) | > 10 µM (inactive) |  | 7.78 µM (inactive)
CCNCC(O)c1ccc(N)c([N+](=O)[O-])c1 (stereo unspecified) | > 100 µM (inactive) | > 100 µM (inactive) | > 100 µM (inactive) | > 100 µM (inactive) | > 100 µM (inactive) |  | > 100 µM (inactive) | > 100 µM (inactive) | > 100 µM (inactive) | > 100 µM (inactive) | > 100 µM (inactive) | > 100 µM (inactive) | > 100 µM (inactive) | > 100 µM (inactive) | > 100 µM (inactive) | > 100 µM (inactive) |  | > 100 µM (inactive) | > 100 µM (inactive) | > 100 µM (inactive)
COC(=O)[C@]1(C)CCC[C@@]2(C)C1CC[C@]13C=C(C(C)C)[C@H](CC21)CC3(Cl)C#N (stereo partly specified) | 27.4 µM (inactive) | 78 µM (inactive) | 36.3 µM (inactive) | 57.7 µM (inactive) | 36.1 µM (inactive) | 36.6 µM (inactive) | 42.6 µM (inactive) | 14.1 µM (inactive) | 45.9 µM (inactive) | 37.8 µM (inactive) | 20.7 µM (inactive) |  | > 100 µM (inactive) |  | 22.8 µM (inactive) | 51.1 µM (inactive) | 29.8 µM (inactive) | 64.3 µM (inactive) | 19.5 µM (inactive) | > 100 µM (inactive)
Cc1c(Cl)cccc1/N=N/C(=O)NNc1cccc(Cl)c1C |  |  | 12.8 µM (inactive) |  | 16.6 µM (inactive) | 16.1 µM (inactive) | 18.2 µM (inactive) | 10.7 µM (inactive) | 13.5 µM (inactive) | 15.3 µM (inactive) | 16.9 µM (inactive) | 25.5 µM (inactive) | 23.1 µM (inactive) | 17.8 µM (inactive) | 15.8 µM (inactive) | 17.3 µM (inactive) | 17.3 µM (inactive) | 12.5 µM (inactive) | 16.8 µM (inactive) | 14.4 µM (inactive)
N#CCCC1(CCC#N)CCCCCCC(CCC#N)(CCC#N)C(=O)C1=O | 70.5 µM (inactive) | > 100 µM (inactive) | > 100 µM (inactive) | > 100 µM (inactive) | > 100 µM (inactive) | > 100 µM (inactive) | > 100 µM (inactive) | 11.9 µM (inactive) | > 100 µM (inactive) | > 100 µM (inactive) |  |  | > 100 µM (inactive) |  |  | 58.2 µM (inactive) | 67.1 µM (inactive) | 3.08 µM (inactive) | > 100 µM (inactive) | 50 µM (inactive)
COc1ccc(-n2c3c(c4cc(O)ccc42)C(=O)c2ccccc2C3=O)cc1 | 10.7 µM (inactive) | 1.05 µM (active) | 2.26 µM (inactive) | 4.61 µM (inactive) | 3.08 µM (inactive) | 36.2 µM (inactive) | 13.8 µM (inactive) | 8.24 µM (inactive) | 2.52 µM (inactive) | 2.73 µM (inactive) |  | 13.8 µM (inactive) | 1.72 µM (inactive) | 15 µM (inactive) |  | 2.3 µM (inactive) |  | 14.7 µM (inactive) | 30.7 µM (inactive) | 3.93 µM (inactive)
O=C1c2ccccc2C(=O)c2c1ccc(C1C(=O)c3ccccc3C1=O)c2-c1c(C2C(=O)c3ccccc3C2=O)ccc2c1C(=O)c1ccccc1C2=O | > 100 µM (inactive) | > 100 µM (inactive) | > 100 µM (inactive) | > 100 µM (inactive) | > 100 µM (inactive) | > 100 µM (inactive) | > 100 µM (inactive) | > 100 µM (inactive) | > 100 µM (inactive) | > 100 µM (inactive) |  | 13.1 µM (inactive) | > 100 µM (inactive) | 7.89 µM (inactive) | > 100 µM (inactive) | > 100 µM (inactive) |  | > 100 µM (inactive) | 36.6 µM (inactive) | > 100 µM (inactive)
Cc1cn(CC(=S)NCCc2c[nH]c3ccccc23)c(=O)[nH]c1=O | 63.7 µM (inactive) | > 100 µM (inactive) | > 100 µM (inactive) | 99.1 µM (inactive) | > 100 µM (inactive) | 69.5 µM (inactive) | 74.5 µM (inactive) | 34.5 µM (inactive) |  | 35.5 µM (inactive) | 44.3 µM (inactive) | 46.5 µM (inactive) | > 100 µM (inactive) | 56.8 µM (inactive) | 33.5 µM (inactive) | > 100 µM (inactive) |  | 87.1 µM (inactive) | 39.1 µM (inactive) | 60.1 µM (inactive)
CC(Nc1cccc(Cl)c1)c1ccncc1 (stereo unspecified) | > 100 µM (inactive) | > 100 µM (inactive) | > 100 µM (inactive) | 51.3 µM (inactive) | > 100 µM (inactive) | > 100 µM (inactive) | 56.2 µM (inactive) | 27.4 µM (inactive) | 88.3 µM (inactive) | 31.6 µM (inactive) | > 100 µM (inactive) | 75.2 µM (inactive) | > 100 µM (inactive) |  | 44.3 µM (inactive) | > 100 µM (inactive) |  | 7.21 µM (inactive) | 23.1 µM (inactive) | 95.9 µM (inactive)
CC(=O)NNc1nc(C)c(C(/C=C/c2ccc([N+](=O)[O-])cc2)=N/NC(N)=O)s1 | > 100 µM (inactive) | > 100 µM (inactive) | > 100 µM (inactive) | > 100 µM (inactive) | > 100 µM (inactive) | > 100 µM (inactive) | > 100 µM (inactive) | > 100 µM (inactive) | > 100 µM (inactive) | > 100 µM (inactive) | > 100 µM (inactive) | > 100 µM (inactive) | > 100 µM (inactive) |  | > 100 µM (inactive) | > 100 µM (inactive) | > 100 µM (inactive) | > 100 µM (inactive) | > 100 µM (inactive) | > 100 µM (inactive)
